Like-named read-outs stand apart in the source and are kept apart here.

We go through nine compounds from patent US20220305000A1 (Cellworks Group Inc., priority 2021, published 2022).

Series [1] has as its system MPN Cell Lines (JAK2 and non JAK2 populations). In words: Efficacy of MPN standard of care drugs tested on cell lines. The conditions noted are these: for sensitive in % of JAK2 Cell line populations: JAK2 cell lines; for resistance in % of non JAK2 population: non JAK2 cell lines. In kind it is cell-based. An excerpt: (§1) Efficacy comparison study of standard of care drugs in MPN Cell Lines and Patients is provided hereunder: […]

Series [2] relates to MPN patients (JAK2 and non JAK2 populations). Put plainly: Efficacy of standard of care drugs on patient cohort. The conditions noted are these: for sensitive in % of JAK2 patient populations: JAK2 patients; for resistance in % of non JAK2 patient's population: non JAK2 patients.
Excerpt: as §1

Series [3] has as its system patients with JAK2 aberration, Chromosome 8 / Chromosome 9 aberration. Put plainly: Analysis of Ruxolitinib non-responder cases in JAK2 aberration segment (efficacy score, chromosome 8/9 genes).
Excerpt: Next, screening was done for all patient's resistant to Ruxolitinib (JAKAFI®) but sensitive to the drug combination of CQ+M+S.
For series [4] the following is noted: in vivo; cited from earlier work.
For series [5] the following is noted: in vivo, cited from earlier work.
The conditions of series [6]: cited from earlier work.
For series [7], the system named is Jakafi resistant JAK2 V617F harboring BaF3 cell-line. Particulars: metformin 0.25 mM, 0.5 mM, 1 mM, 5 mM and 10 mM.
Experimental: Relative growth of cells was assessed using MTT assay.
Viable cells % was assessed using MTT assay.
Viable cells % was assessed using MTT assay (FIG. 7a).
[8] abbreviates: after meal, chloroquine 200 mg morning, metformin 1250 mg morning and evening, rosuvastatin 20 mg evening.

Take `Nc1ncn([C@@H]2O[C@H](CO)[C@@H](O)[C@H]2O)c(=O)n1` [Azacytidine]: in series [1], the “sensitive in % of JAK2 Cell line populations” value is listed as 50% and the “resistance in % of non JAK2 population” value was 50%. In series [2], the “sensitive in % of JAK2 patient populations” value turned out to be 34.16% and the “resistance in % of non JAK2 patient's population” value turned out to be 74%.
As for `CCN(CC)CCCC(C)Nc1ccnc2cc(Cl)ccc12` (stereo not shown) [Chloroquine, chloroquine], in series [3] (Gene MCL1, Chromosome 8, Trisomy 8), the Response result is given as “Inclusion”. For the same compound, in series [4], the “grade ¾ toxicity” value is given as “rarely reported”. The results for the “MTD (maximum tolerated dose)” value in series [5] and in series [5] (listed as chloroquine) were 600 mg/day and “about 600 mg/day”, respectively. Moreover, in series [6] (setting [8]), the “Peak Concentration at Dosage” value is 1.18 µM. Also, the t½ – broadly, the time in which the quantity being followed falls by half – in series [6] (in vivo) is 20 to 60 days.
For the compound `Nc1ncn([C@H]2C[C@H](O)[C@@H](CO)O2)c(=O)n1` [Decitabine], in series [1], the “sensitive in % of JAK2 Cell line populations” value was 50% and the “resistance in % of non JAK2 population” value is recorded as 50%. Also, in series [2], the “sensitive in % of JAK2 patient populations” value is listed as 34.16% and the “resistance in % of non JAK2 patient's population” value was 74%.
Regarding `NC(=O)NO` [Hydroxyurea], in series [1], the “sensitive in % of JAK2 Cell line populations” value is 0% and the “resistance in % of non JAK2 population” value is reported as 100%. In series [2], the “sensitive in % of JAK2 patient populations” value stood at 1% and the “resistance in % of non JAK2 patient's population” value is recorded as 100%.
For `Cc1ccc(NC(=O)c2ccc(CN3CCN(C)CC3)cc2)cc1Nc1nccc(-c2cccnc2)n1` [Imatinib], in series [1], the “sensitive in % of JAK2 Cell line populations” value amounted to 0% and the “resistance in % of non JAK2 population” value was found to be 83.33%. Further, in series [2], the “sensitive in % of JAK2 patient populations” value was found to be 0.5% and the “resistance in % of non JAK2 patient's population” value came to 100%.
For the compound `CN(C)C(=N)N=C(N)N` [Metformin, metformin], in series [3] (Gene TGFBR1, Chromosome 9, Trisomy 9), the Response result is given as “Inclusion”. Besides, in series [7], the “cell viability, viable cells % (MTT)” value is “steady decrease in cell viability”. Besides, in series [4], the “Diarrhoea, All Grades” value was 53%; the “Headache, All Grades” value is listed as 5.7%; the “Nausea, All Grades” value was 25.5%; the “grade ¾ toxicity” value is “rarely reported”. The “MTD (maximum tolerated dose)” value in series [5] is 2500 mg/day. The “MTD (maximum tolerated dose)” value in series [5] (listed as metformin) was “about 2500 mg/day”. Also, in series [6] (in vivo), the “Peak Concentration at Dosage” value was 5.8 µM.
For `CC(C)c1nc(N(C)S(C)(=O)=O)nc(-c2ccc(F)cc2)c1/C=C/[C@@H](O)C[C@@H](O)CC(=O)O` [Rosuvastatin, rosuvastatin], in series [4], the “Headache, All Grades” value is on record as 8.5%. For the same compound, in series [4], the “Nausea, All Grades” value was 6.3%. The “MTD (maximum tolerated dose)” value in series [5] is recorded as 60 mg/day; in series [5] (listed as rosuvastatin) it was “about 60 mg/day”. Further, the “Peak Concentration at Dosage” value in series [6] (setting [8]) was 0.09 µM.
With `N#CC[C@H](C1CCCC1)n1cc(-c2ncnc3[nH]ccc23)cn1` [Ruxolitinib, ruxolitinib], in series [1], the “sensitive in % of JAK2 Cell line populations” value came to 75% and the “resistance in % of non JAK2 population” value is on record as 83.33%. For the same compound, in series [2], the “sensitive in % of JAK2 patient populations” value is on record as 81.18% and the “resistance in % of non JAK2 patient's population” value amounted to 87.81%. For the same compound, in series [4], the “Anemia, All Grades” value is on record as 96.1%; the “Headache, All Grades” value was 14.8%; the “Neutropenia, All Grades” value was 18.7%; the “Thrombocytopenia, All Grades” value was 69.7%. For the same compound, the “patients with Anemia of grade 3 or more” value in series [4] was 40-45%.
For the compound `O=C1CCC(N2C(=O)c3ccccc3C2=O)C(=O)N1` (stereo not shown) [Thalidomide], in series [1], the “sensitive in % of JAK2 Cell line populations” value is reported as 75% and the “resistance in % of non JAK2 population” value is given as 16.67%. In addition, in series [2], the “sensitive in % of JAK2 patient populations” value was found to be 33.17% and the “resistance in % of non JAK2 patient's population” value is recorded as 75.61%.
